Earlier results, collected in US20050215571A1, “Therapeutic combination for cognititon enhancement and psychotic disorders” (Pfizer Inc., priority 2003, published 2005).

Assays:
[1] = not given; remark: listed apart in the source

protein binding: extensive
half-life ([1]; in vivo): 6 to 7 h
Oral bioavailability ([1]; oral, taken with food): approximately 60%
SMILES: O=C1Cc2cc(CCN3CCN(c4nsc5ccccc45)CC3)c(Cl)cc2N1 [Ziprasidone, 5-[2-[4-(1,2-benzisothiazol-3-yl)piperazin-1-yl]ethyl]-6-chloroindolin-2-one]
